{"source": "patent US8361968B2", "about": "(Takeda Pharmaceutical Company Limited, priority 2002, dated 2013)", "note": "Square brackets hold non-standard residues; d marks the D form. Peptide text beside a SMILES is read from it. * marks the point of attachment. 2Nal = N[C@@H](Cc1ccc2ccccc2c1)C(=O)O; Arg(Me) = CNC(=N)NCCC[C@H](N)C(=O)O; Fmoc = O=C(OCC1c2ccccc2-c2ccccc21)*; 2Pal = N[C@@H](Cc1ccccn1)C(=O)O; 3Pal = N[C@@H](Cc1cccnc1)C(=O)O; d4Pal = N[C@H](Cc1ccncc1)C(=O)O; azaGly = NNC(=O)O", "data": [{"target": "hOT7T175 (Homo sapiens, UniProt Q969F8, L364H)", "sequence (Q969F8 whole entry L364H)": "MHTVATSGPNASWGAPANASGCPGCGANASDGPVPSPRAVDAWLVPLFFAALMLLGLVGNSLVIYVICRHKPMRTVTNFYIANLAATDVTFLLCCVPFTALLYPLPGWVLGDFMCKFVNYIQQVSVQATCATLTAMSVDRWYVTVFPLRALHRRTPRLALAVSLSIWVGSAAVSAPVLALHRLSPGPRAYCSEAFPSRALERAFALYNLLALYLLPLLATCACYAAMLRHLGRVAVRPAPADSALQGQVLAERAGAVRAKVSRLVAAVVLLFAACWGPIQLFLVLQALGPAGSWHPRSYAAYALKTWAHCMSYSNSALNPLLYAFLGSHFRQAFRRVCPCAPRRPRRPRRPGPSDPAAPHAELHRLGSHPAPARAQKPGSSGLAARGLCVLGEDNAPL", "assay": "hOT7T175 receptor binding activity: binding inhibition of Cy-5-labeled metastin (40-54) on hOT7T175-expressed CHO cells", "set-up": "expressed in transfected cells; host or cells: CHO cells", "procedure": "Assay for hOT7T175 Receptor Binding Activity\nh0T7T175-Expressed CHO cells were cultured in MEM-cc medium (nucleic acid-free) containing 10% dialyzed serum. The medium was removed and the adherent cells were washed with PBS. Then, PBS containing 5 mM EDTA was added and the cells were scraped from a flask with a cell scraper. […] To each well of a 96-Well Black Clear Bottom Plate (Applied Biosystems, Inc.), 10 μL of assay buffer containing 1% dimethylsulfoxide was added to examine total binding, 10 μL of 10 μM non-labeled peptide (having the same amino acid sequence as that of the labeled one) solution diluted with assay buffer to examine non-specific binding, and 10 μL of a test compound diluted with assay buffer to examine the binding inhibition activity of the test compound, respectively. Furthermore, 90 μL each of the cell suspension was dispensed to each well. […] The specific binding is a value obtained by subtracting the non-specific binding from the total binding.", "units": {"IC50": "nM"}, "values": [{"smiles": "CC(C)C[C@H](NC(=O)CNC(=O)[C@H](Cc1ccccc1)NC(=O)[C@H](CO)NC(=O)[C@H](CC(N)=O)NC(=O)[C@H](C)NC(=O)[C@H](CC(N)=O)NC(=O)[C@@H](N)Cc1ccc(O)cc1)C(=O)N[C@@H](CCCNC(=N)N)C(=O)N[C@@H](Cc1ccccc1)C(N)=O", "note": "[Compound No. 67] (H-YNANSFGLRF-NH2)", "IC50": 27}, {"smiles": "CC(C)C[C@H](NC(=O)CNC(=O)[C@H](Cc1ccccc1)NC(=O)[C@H](CO)NC(=O)[C@H](CC(N)=O)NC(=O)[C@H](CC(C)C)NC(=O)[C@H](CC(N)=O)NC(=O)[C@@H](N)Cc1ccc(O)cc1)C(=O)N[C@@H](CCCNC(=N)N)C(=O)N[C@@H](Cc1ccccc1)C(N)=O", "note": "[Compound No. 68] (H-YNLNSFGLRF-NH2)", "IC50": 7.7}, {"smiles": "CC(C)C[C@H](NC(=O)CNC(=O)[C@H](Cc1ccccc1)NC(=O)[C@H](CO)NC(=O)[C@H](CC(N)=O)NC(=O)[C@H](CO)NC(=O)[C@H](CC(N)=O)NC(=O)[C@@H](N)Cc1ccc(O)cc1)C(=O)N[C@@H](CCCNC(=N)N)C(=O)N[C@@H](Cc1ccccc1)C(N)=O", "note": "[Compound No. 69] (H-YNSNSFGLRF-NH2)", "IC50": 83}, {"smiles": "CC(C)C[C@H](NC(=O)CNC(=O)[C@H](Cc1ccccc1)NC(=O)[C@H](CO)NC(=O)[C@H](CC(N)=O)NC(=O)[C@H](Cc1c[nH]c2ccccc12)NC(=O)[C@H](CC(N)=O)NC(=O)[C@H](C)N)C(=O)N[C@@H](CCCNC(=N)N)C(=O)N[C@@H](Cc1ccccc1)C(N)=O", "note": "[Compound No. 72] (H-ANWNSFGLRF-NH2)", "IC50": 540}, {"smiles": "CC(C)C[C@H](NC(=O)CNC(=O)[C@H](Cc1ccccc1)NC(=O)[C@H](CO)NC(=O)[C@H](CC(N)=O)NC(=O)[C@H](Cc1c[nH]c2ccccc12)NC(=O)[C@H](CC(N)=O)NC(=O)[C@@H](N)Cc1ccc(O)cc1)C(=O)N[C@@H](CCCNC(=N)N(C)C)C(=O)N[C@@H](Cc1ccccc1)C(N)=O", "note": "[Compound No. 83]", "IC50": 25}, {"smiles": "CC(C)[C@H](NC(=O)CNC(=O)[C@H](Cc1ccccc1)NC(=O)[C@H](CO)NC(=O)[C@H](CC(N)=O)NC(=O)[C@H](Cc1c[nH]c2ccccc12)NC(=O)[C@H](CC(N)=O)NC(=O)[C@@H](N)Cc1ccc(O)cc1)C(=O)N[C@@H](CCCNC(=N)N)C(=O)N[C@@H](Cc1ccccc1)C(N)=O", "note": "[Compound No. 107] (H-YNWNSFGVRF-NH2)", "IC50": 120}, {"smiles": "C/N=C(/NC)NCCC[C@H](NC(=O)[C@H](CC(C)C)NC(=O)CNC(=O)[C@H](Cc1ccccc1)NC(=O)[C@H](CO)NC(=O)[C@H](CC(N)=O)NC(=O)[C@H](Cc1c[nH]c2ccccc12)NC(=O)[C@H](CC(N)=O)NC(=O)[C@@H](N)Cc1ccc(O)cc1)C(=O)N[C@@H](Cc1ccccc1)C(N)=O", "note": "[Compound No. 129]", "IC50": 83}, {"smiles": "CNC(=N)NCCC[C@H](NC(=O)[C@H](CC(C)C)NC(=O)CNC(=O)[C@H](Cc1ccccc1)NC(=O)[C@H](CO)NC(=O)[C@H](CC(N)=O)NC(=O)[C@H](Cc1c[nH]c2ccccc12)NC(=O)OCC1c2ccccc2-c2ccccc21)C(=O)N[C@@H](Cc1ccccc1)C(N)=O", "note": "[Compound No. 145, Fmoc-Trp-Asn-Ser-Phe-Gly-Leu-Arg(Me)-Phe-NH2] (Fmoc-WNSFGL[Arg(Me)]F-NH2)", "IC50": 120}, {"smiles": "CC(C)C[C@H](NC(=O)CNC(=O)[C@H](Cc1ccc(O)cc1)NC(=O)[C@H](CO)NC(=O)[C@H](CC(N)=O)NC(=O)[C@H](Cc1c[nH]c2ccccc12)NC(=O)[C@H](CC(N)=O)NC(=O)[C@@H](N)Cc1ccc(O)cc1)C(=O)N[C@@H](CCCNC(=N)N)C(=O)N[C@@H](Cc1ccccc1)C(N)=O", "note": "[Compound No. 150] (H-YNWNSYGLRF-NH2)", "IC50": 320}, {"smiles": "CNC(N)=NCCC[C@H](NC(=O)[C@H](CC(C)C)NC(=O)NNC(=O)[C@H](Cc1ccccc1)NC(=O)[C@H](CO)NC(=O)[C@H](CC(N)=O)NC(=O)[C@H](CO)NC(=O)[C@H](CC(N)=O)NC(=O)[C@H](N)Cc1ccc(O)cc1)C(=O)N[C@@H](Cc1ccccc1)C(N)=O", "note": "[Compound No. 191, D-Tyr-Asn-Ser-Asn-Ser-Phe-AzaGly-Leu-Arg(Me)-Phe-NH2] (H-[dY]NSNSF[azaGly]L[Arg(Me)]F-NH2)", "IC50": 300}, {"smiles": "CNC(N)=NCCC[C@H](NC(=O)[C@H](CC(C)C)NC(=O)NNC(=O)[C@H](Cc1ccccc1)NC(=O)[C@H](CO)NC(=O)[C@H](CC(N)=O)NC(=O)[C@@H](NC(=O)[C@H](CC(N)=O)NC(=O)[C@H](N)Cc1ccc(O)cc1)[C@@H](C)O)C(=O)N[C@@H](Cc1ccccc1)C(N)=O", "note": "[Compound No. 221, D-Tyr-Asn-Thr-Asn-Ser-Phe-AzaGly-Leu-Arg(Me)-Phe-NH2] (H-[dY]NTNSF[azaGly]L[Arg(Me)]F-NH2)", "IC50": 95}, {"smiles": "CNC(=N)NCCC[C@H](NC(=O)[C@H](CC(C)C)NC(=O)CNC(=O)[C@H](Cc1ccccc1)NC(=O)[C@H](CO)NC(=O)[C@H](CC(N)=O)NC(=O)[C@@H](Cc1c[nH]c2ccccc12)NC(=O)[C@H](N)CC(N)=O)C(=O)N[C@@H](Cc1ccccc1)C(N)=O", "note": "[Compound No. 225, D-Asn-D-Trp-Asn-Ser-Phe-Gly-Leu-Arg(Me)-Phe-NH2] (H-[dN][dW]NSFGL[Arg(Me)]F-NH2)", "IC50": 410}, {"smiles": "CNC(=N)NCCC[C@H](NC(=O)[C@H](CC(C)C)NC(=O)CNC(=O)[C@H](Cc1ccccc1)NC(=O)[C@H](CO)NC(=O)[C@H](CC(N)=O)NC(=O)[C@H](CO)NC(=O)[C@H](N)Cc1ccc(O)cc1)C(=O)N[C@@H](Cc1ccccc1)C(N)=O", "note": "[Compound No. 226] (H-[dY]SNSFGL[Arg(Me)]F-NH2)", "IC50": 100}, {"smiles": "CNC(N)=NCCC[C@H](NC(=O)[C@H](CC(C)C)NC(=O)NNC(=O)[C@H](Cc1ccccc1)NC(=O)[C@H](CO)NC(=O)[C@H](CC(N)=O)NC(=O)[C@H](CO)NC(=O)[C@H](N)Cc1ccc(O)cc1)C(=O)N[C@@H](Cc1ccccc1)C(N)=O", "note": "[Compound No. 239, D-Tyr-Ser-Asn-Ser-Phe-AzaGly-Leu-Arg(Me)-Phe-NH2] (H-[dY]SNSF[azaGly]L[Arg(Me)]F-NH2)", "IC50": 120}, {"smiles": "CC[C@H](C)[C@H](NC(=O)[C@H](N)Cc1ccc(O)cc1)C(=O)N[C@@H](CC(N)=O)C(=O)N[C@@H](CO)C(=O)N[C@@H](Cc1ccccc1)C(=O)NNC(=O)N[C@@H](CC(C)C)C(=O)N[C@@H](CCCNC(=N)NC)C(=O)N[C@@H](Cc1ccccc1)C(N)=O", "note": "[Compound No. 240, D-Tyr-Ile-Asn-Ser-Phe-AzaGly-Leu-Arg(Me)-Phe-NH2] (H-[dY]INSF[azaGly]L[Arg(Me)]F-NH2)", "IC50": 17}, {"smiles": "CNC(=N)NCCC[C@H](NC(=O)[C@H](CC(C)C)NC(=O)NNC(=O)[C@H](Cc1ccccc1)NC(=O)[C@H](CO)NC(=O)[C@H](CC(N)=O)NC(=O)[C@H](Cc1cccnc1)NC(=O)[C@H](CC(N)=O)NC(=O)[C@H](N)Cc1ccc(O)cc1)C(=O)N[C@@H](Cc1ccccc1)C(N)=O", "note": "[Compound No. 251, D-Tyr-Asn-Pya(3)-Asn-Ser-Phe-AzaGly-Leu-Arg(Me)-Phe-NH2] (H-[dY]N[3Pal]NSF[azaGly]L[Arg(Me)]F-NH2)", "IC50": 87}, {"smiles": "CNC(=N)NCCC[C@H](NC(=O)[C@H](CC(C)C)NC(=O)NNC(=O)[C@H](Cc1ccccc1)NC(=O)[C@H](CO)NC(=O)[C@H](CC(N)=O)NC(=O)[C@@H]1CCCN1C(=O)[C@H](CC(N)=O)NC(=O)[C@H](N)Cc1ccc(O)cc1)C(=O)N[C@@H](Cc1ccccc1)C(N)=O", "note": "[Compound No. 253, D-Tyr-Asn-Pro-Asn-Ser-Phe-AzaGly-Leu-Arg(Me)-Phe-NH2] (H-[dY]NPNSF[azaGly]L[Arg(Me)]F-NH2)", "IC50": 27}, {"smiles": "CNC(N)=NCCC[C@H](NC(=O)[C@H](CC(C)C)NC(=O)NNC(=O)[C@H](Cc1ccccc1)NC(=O)[C@H](CO)NC(=O)[C@H](CC(N)=O)NC(=O)[C@H](Cc1ccc2ccccc2c1)NC(=O)[C@H](N)Cc1ccc(O)cc1)C(=O)N[C@@H](Cc1ccccc1)C(N)=O", "note": "[Compound No. 255, D-Tyr-Nal(2)-Asn-Ser-Phe-AzaGly-Leu-Arg(Me)-Phe-NH2] (H-[dY][2Nal]NSF[azaGly]L[Arg(Me)]F-NH2)", "IC50": 33}, {"smiles": "CNC(N)=NCCC[C@H](NC(=O)[C@H](CC(C)C)NC(=O)NNC(=O)[C@H](Cc1ccccc1)NC(=O)[C@H](CO)NC(=O)[C@H](CC(N)=O)NC(=O)[C@H](Cc1ccccc1)NC(=O)[C@@H](CC(N)=O)NC(=O)[C@H](N)Cc1ccc(O)cc1)C(=O)N[C@@H](Cc1ccccc1)C(N)=O", "note": "[Compound No. 257, D-Tyr-D-Asn-Phe-Asn-Ser-Phe-AzaGly-Leu-Arg(Me)-Phe-NH2] (H-[dY][dN]FNSF[azaGly]L[Arg(Me)]F-NH2)", "IC50": 40}, {"smiles": "CNC(=N)NCCC[C@H](NC(=O)[C@H](CC(C)C)NC(=O)NNC(=O)[C@H](Cc1ccccc1)NC(=O)[C@H](CO)NC(=O)[C@H](CC(N)=O)NC(=O)[C@H](CCCNC(=N)N)NC(C)=O)C(=O)N[C@@H](Cc1ccccc1)C(N)=O", "note": "[Compound No. 275, Acetyl-Arg-Asn-Ser-Phe-AzaGly-Leu-Arg(Me)-Phe-NH2] (Ac-RNSF[azaGly]L[Arg(Me)]F-NH2)", "IC50": 410}, {"smiles": "CNC(=N)NCCC[C@H](NC(=O)[C@H](CC(C)C)NC(=O)NNC(=O)[C@H](Cc1ccccc1)NC(=O)[C@H](CO)NC(=O)[C@H](CC(N)=O)NC(=O)[C@H](Cc1ccccn1)NC(=O)[C@H](CC(N)=O)NC(=O)[C@H](N)Cc1ccc(O)cc1)C(=O)N[C@@H](Cc1ccccc1)C(N)=O", "note": "[Compound No. 285, D-Tyr-Asn-Pya(2)-Asn-Ser-Phe-AzaGly-Leu-Arg(Me)-Phe-NH2] (H-[dY]N[2Pal]NSF[azaGly]L[Arg(Me)]F-NH2)", "IC50": 40}, {"smiles": "CNC(N)=NCCC[C@H](NC(=O)[C@H](CC(C)C)NC(=O)NNC(=O)[C@H](Cc1ccccc1)NC(=O)[C@H](CO)NC(=O)[C@H](CC(N)=O)NC(=O)[C@@H](Cc1ccncc1)NC(=O)[C@H](CC(N)=O)NC(=O)[C@H](N)Cc1ccc(O)cc1)C(=O)N[C@@H](Cc1ccccc1)C(N)=O", "note": "[Compound No. 302, D-Tyr-Asn-D-Pya(4)-Asn-Ser-Phe-AzaGly-Leu-Arg(Me)-Phe-NH2] (H-[dY]N[d4Pal]NSF[azaGly]L[Arg(Me)]F-NH2)", "IC50": 7.7}]}]}
